From PubChem BioAssay AID2060487 (Molecular Pharmacology Branch, DTP, NCI, 2025)

System: 997537-175-T-J1-PDC complex spheroid viability
Experiment: Anticancer human tumor 997537-175-T-J1-PDC patient-derived colon adenocarcinoma cell line growth inhibition [GQUAD]
Settings: for IC50: curve of first compound; for viability, T/C: stronger effect = lower value; active means viability on the fitted dose curve at most 10% of control; inactive means the rest
Method in brief: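 Viability of tumor cells grown as complex spheroids with endothelial and stromal cells, exposed to drug combinations. Top concentration at or near clinical Cmax (else 10 microM), diluted in half-log increments.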

[1] = second compound 0.0316 µM, first compound 0.0316 µM
[2] = second compound 0.0316 µM, first compound 0.1 µM
[3] = second compound 0.0316 µM, first compound 0.316 µM
[4] = second compound 0.0316 µM, first compound 1 µM
[5] = second compound 0.0316 µM, first compound 3.16 µM
[6] = second compound 0.0316 µM, first compound 10 µM
[7] = second compound 0.1 µM, first compound 0.0316 µM
[8] = second compound 0.1 µM, first compound 0.1 µM
[9] = second compound 0.1 µM, first compound 0.316 µM
[10] = second compound 0.1 µM, first compound 1 µM
[11] = second compound 0.1 µM, first compound 3.16 µM
[12] = second compound 0.1 µM, first compound 10 µM
[13] = second compound 0.316 µM, first compound 0.0316 µM
[14] = second compound 0.316 µM, first compound 0.1 µM
[15] = second compound 0.316 µM, first compound 0.316 µM
[16] = second compound 0.316 µM, first compound 1 µM
[17] = second compound 0.316 µM, first compound 3.16 µM
[18] = second compound 0.316 µM, first compound 10 µM
[19] = second compound 1 µM, first compound 0.0316 µM
[20] = second compound 1 µM, first compound 0.1 µM
[21] = second compound 1 µM, first compound 0.316 µM
[22] = second compound 1 µM, first compound 1 µM
[23] = second compound 1 µM, first compound 3.16 µM
[24] = second compound 1 µM, first compound 10 µM
[25] = second compound 3.16 µM, first compound 0.0316 µM
[26] = second compound 3.16 µM, first compound 0.1 µM
[27] = second compound 3.16 µM, first compound 0.316 µM
[28] = second compound 3.16 µM, first compound 1 µM
[29] = second compound 3.16 µM, first compound 3.16 µM
[30] = second compound 3.16 µM, first compound 10 µM
[31] = second compound 10 µM, first compound 0.0316 µM
[32] = second compound 10 µM, first compound 0.1 µM
[33] = second compound 10 µM, first compound 0.316 µM
[34] = second compound 10 µM, first compound 1 µM
[35] = second compound 10 µM, first compound 3.16 µM
[36] = second compound 10 µM, first compound 10 µM
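Further: spheroids exposed to the agents for 7 days.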
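Wherever viability, T/C is given: 100% = DMSO vehicle control viability.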

CC(=O)O[C@H]1C(=O)[C@@]2(C)[C@H]([C@H](OC(=O)c3ccccc3)[C@]3(O)C[C@H](OC(=O)[C@H](O)[C@@H](NC(=O)c4ccccc4)c4ccccc4)C(C)=C1C3(C)C)[C@]1(OC(C)=O)CO[C@@H]1C[C@@H]2O + CN(C)c1ccc(Nc2c3ccc(NC(=O)CCN4CCCC4)cc3nc3cc(NC(=O)CCN4CCCC4)ccc23)cc1
inactive: viability, T/C [1] 75.2% | viability, T/C [2] 43.6% | viability, T/C [3] 28.1% | viability, T/C [4] 21.5% | viability, T/C [5] 32.2% | viability, T/C [6] 29.4% | viability, T/C [7] 67.3% | viability, T/C [8] 40.9% | viability, T/C [9] 36.9% | viability, T/C [10] 21.1% | viability, T/C [11] 30.7% | viability, T/C [12] 34.9% | viability, T/C [13] 78.3% | viability, T/C [14] 36.5% | viability, T/C [15] 34.5% | viability, T/C [16] 19.4% | viability, T/C [17] 16.6% | viability, T/C [18] 21.1% | viability, T/C [19] 71.6% | viability, T/C [20] 9.98% | viability, T/C [21] 35.1% | viability, T/C [22] 18.1% | viability, T/C [23] 29.6% | viability, T/C [24] 24.8% | viability, T/C [25] 37.7% | viability, T/C [26] 45.5% | viability, T/C [27] 31.9% | viability, T/C [28] 18.1% | viability, T/C [29] 20.1% | viability, T/C [30] 41.8% | viability, T/C [31] 72% | viability, T/C [32] 28.8% | viability, T/C [33] 34.4% | viability, T/C [34] 35.7% | viability, T/C [35] 29.8% | viability, T/C [36] 27.3%
< 31.6 nM: IC50 (second compound 3.16 µM)
53.1 nM: IC50 (second compound 1 µM)
79.1 nM: IC50 (second compound 0.0316 µM)
59 nM: IC50 (second compound 10 µM)
74.6 nM: IC50 (second compound 0.316 µM)
67.7 nM: IC50 (second compound 0.1 µM)

CC1COCCN1c1cc(C2(S(C)(=N)=O)CC2)nc(-c2ccnc3[nH]ccc23)n1 (stereo not drawn) + Cc1[nH]c2ccc(F)cc2c1-c1nc2c3cccnc3c3ncccc3c2[nH]1
> 10000 nM: IC50 (second compound 0.316 µM) | IC50 (second compound 1 µM) | IC50 (second compound 10 µM)
6510 nM: IC50 (second compound 3.16 µM)
9530 nM: IC50 (second compound 0.0316 µM)
6250 nM: IC50 (second compound 0.1 µM)
inactive: viability, T/C [1] 96.7% | viability, T/C [2] 83.8% | viability, T/C [3] 76.3% | viability, T/C [4] 71.9% | viability, T/C [5] 62.9% | viability, T/C [6] 47.5% | viability, T/C [7] 95.8% | viability, T/C [8] 86.2% | viability, T/C [9] 82.4% | viability, T/C [10] 77.6% | viability, T/C [11] 70.3% | viability, T/C [12] 37.4% | viability, T/C [13] 107% | viability, T/C [14] 73.8% | viability, T/C [15] 69.7% | viability, T/C [16] 70% | viability, T/C [17] 62.3% | viability, T/C [18] 49.3% | viability, T/C [19] 80.3% | viability, T/C [20] 46.2% | viability, T/C [21] 76.8% | viability, T/C [22] 94% | viability, T/C [23] 72.5% | viability, T/C [24] 60.6% | viability, T/C [25] 59.7% | viability, T/C [26] 79.8% | viability, T/C [27] 66.1% | viability, T/C [28] 55.8% | viability, T/C [29] 71% | viability, T/C [30] 40.4% | viability, T/C [31] 63.7% | viability, T/C [32] 76.2% | viability, T/C [33] 72.2% | viability, T/C [34] 71.2% | viability, T/C [35] 64.5% | viability, T/C [36] 74.8%

C#Cc1c(F)ccc2cc(O)cc(-c3ncc4c(N5CC6CCC(C5)N6)nc(OCC56CCCN5CC(F)C6)nc4c3F)c12 (stereo not drawn) + Cc1cnc(CNC(=O)c2c(=O)c3ccc(N4CCCN(C)CC4)nc3n3c2sc2ccccc23)cn1
inactive: viability, T/C [1] 102% | viability, T/C [2] 85.6% | viability, T/C [3] 101% | viability, T/C [4] 74.9% | viability, T/C [5] 75.7% | viability, T/C [6] 111% | viability, T/C [7] 92.2% | viability, T/C [8] 90.2% | viability, T/C [9] 101% | viability, T/C [10] 80.8% | viability, T/C [11] 104% | viability, T/C [12] 109% | viability, T/C [13] 83.4% | viability, T/C [14] 83.6% | viability, T/C [15] 92.1% | viability, T/C [16] 97.3% | viability, T/C [17] 79.9% | viability, T/C [18] 108% | viability, T/C [19] 72.3% | viability, T/C [20] 101% | viability, T/C [21] 85% | viability, T/C [22] 98% | viability, T/C [23] 105% | viability, T/C [24] 113% | viability, T/C [25] 91.2% | viability, T/C [26] 108% | viability, T/C [27] 95.2% | viability, T/C [28] 99.1% | viability, T/C [29] 96.3% | viability, T/C [30] 106% | viability, T/C [31] 77% | viability, T/C [32] 100% | viability, T/C [33] 93.1% | viability, T/C [34] 97.9% | viability, T/C [35] 127% | viability, T/C [36] 110%
> 10000 nM: IC50 (second compound 0.0316 µM) | IC50 (second compound 0.1 µM) | IC50 (second compound 0.316 µM) | IC50 (second compound 1 µM) | IC50 (second compound 3.16 µM) | IC50 (second compound 10 µM)

Cn1ncnc1[C@H]1c2n[nH]c(=O)c3cc(F)cc(c23)N[C@@H]1c1ccc(F)cc1 + Cc1cnc(CNC(=O)c2c(=O)c3ccc(N4CCCN(C)CC4)nc3n3c2sc2ccccc23)cn1
inactive: viability, T/C (second compound 0.0316 µM, first compound 0.000999 µM) 96.5% | viability, T/C (second compound 0.0316 µM, first compound 0.00316 µM) 90.8% | viability, T/C (second compound 0.0316 µM, first compound 0.00999 µM) 90.8% | viability, T/C [1] 86.6% | viability, T/C (second compound 0.0316 µM, first compound 0.0999 µM) 76.9% | viability, T/C [3] 87.4% | viability, T/C (second compound 0.1 µM, first compound 0.000999 µM) 106% | viability, T/C (second compound 0.1 µM, first compound 0.00316 µM) 79.2% | viability, T/C (second compound 0.1 µM, first compound 0.00999 µM) 106% | viability, T/C [7] 52.1% | viability, T/C (second compound 0.1 µM, first compound 0.0999 µM) 89.6% | viability, T/C [9] 85% | viability, T/C (second compound 0.316 µM, first compound 0.000999 µM) 107% | viability, T/C (second compound 0.316 µM, first compound 0.00316 µM) 93.8% | viability, T/C (second compound 0.316 µM, first compound 0.00999 µM) 86.4% | viability, T/C [13] 80.8% | viability, T/C (second compound 0.316 µM, first compound 0.0999 µM) 98.7% | viability, T/C [15] 85.5% | viability, T/C (second compound 1 µM, first compound 0.000999 µM) 89.4% | viability, T/C (second compound 1 µM, first compound 0.00316 µM) 89.9% | viability, T/C (second compound 1 µM, first compound 0.00999 µM) 94.4% | viability, T/C [19] 116% | viability, T/C (second compound 1 µM, first compound 0.0999 µM) 95% | viability, T/C [21] 108% | viability, T/C (second compound 3.16 µM, first compound 0.000999 µM) 104% | viability, T/C (second compound 3.16 µM, first compound 0.00316 µM) 86.9% | viability, T/C (second compound 3.16 µM, first compound 0.00999 µM) 96.2% | viability, T/C [25] 100% | viability, T/C (second compound 3.16 µM, first compound 0.0999 µM) 94.4% | viability, T/C [27] 106% | viability, T/C (second compound 10 µM, first compound 0.000999 µM) 87.2% | viability, T/C (second compound 10 µM, first compound 0.00316 µM) 98.9% | viability, T/C (second compound 10 µM, first compound 0.00999 µM) 97.7% | viability, T/C [31] 103% | viability, T/C (second compound 10 µM, first compound 0.0999 µM) 96.4% | viability, T/C [33] 98.3%
> 316 nM: IC50 (second compound 0.0316 µM) | IC50 (second compound 0.1 µM) | IC50 (second compound 0.316 µM) | IC50 (second compound 1 µM) | IC50 (second compound 3.16 µM) | IC50 (second compound 10 µM)
